Laboratory results from patent EP2921553B1, “Enzymatic reactor system” (Leibniz-Institut für Polymerforschung Dresden e.V., priority 2014, dated 2015).

T1: S-Acetyl-coenzyme A synthetase (EC 6.2.1.1) from baker's yeast, Immobilized enzyme (PEI-PNIPAm) (Saccharomyces cerevisiae, UniProt Q01574)
T1 construct: purchased Sigma-Aldrich (Germany)
T1 sequence (Q01574 1-713): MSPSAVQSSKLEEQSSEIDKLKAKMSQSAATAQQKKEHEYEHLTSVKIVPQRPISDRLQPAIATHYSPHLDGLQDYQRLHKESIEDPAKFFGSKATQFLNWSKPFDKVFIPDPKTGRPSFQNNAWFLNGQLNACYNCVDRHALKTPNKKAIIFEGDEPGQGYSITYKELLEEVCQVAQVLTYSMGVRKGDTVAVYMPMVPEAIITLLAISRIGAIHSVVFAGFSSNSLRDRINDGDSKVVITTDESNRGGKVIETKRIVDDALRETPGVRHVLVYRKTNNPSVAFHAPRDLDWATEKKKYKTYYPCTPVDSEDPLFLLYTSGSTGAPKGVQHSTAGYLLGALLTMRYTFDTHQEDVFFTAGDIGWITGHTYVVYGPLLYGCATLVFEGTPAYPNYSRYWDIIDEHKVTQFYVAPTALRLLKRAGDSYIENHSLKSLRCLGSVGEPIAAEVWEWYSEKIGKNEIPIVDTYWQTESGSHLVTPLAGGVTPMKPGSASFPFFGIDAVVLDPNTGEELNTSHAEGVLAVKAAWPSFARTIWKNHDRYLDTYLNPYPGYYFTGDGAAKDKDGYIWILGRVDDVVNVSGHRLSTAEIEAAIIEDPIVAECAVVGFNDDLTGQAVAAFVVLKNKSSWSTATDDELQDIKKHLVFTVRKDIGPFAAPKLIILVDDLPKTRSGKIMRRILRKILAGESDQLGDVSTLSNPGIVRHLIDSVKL

T2: S-Acetyl-coenzyme A synthetase (EC 6.2.1.1) from baker's yeast, Immobilized enzyme (PNIPAm-AEMA) (Saccharomyces cerevisiae, UniProt Q01574)
T2 construct: purchased Sigma-Aldrich (Germany)
T2 sequence (Q01574 1-713): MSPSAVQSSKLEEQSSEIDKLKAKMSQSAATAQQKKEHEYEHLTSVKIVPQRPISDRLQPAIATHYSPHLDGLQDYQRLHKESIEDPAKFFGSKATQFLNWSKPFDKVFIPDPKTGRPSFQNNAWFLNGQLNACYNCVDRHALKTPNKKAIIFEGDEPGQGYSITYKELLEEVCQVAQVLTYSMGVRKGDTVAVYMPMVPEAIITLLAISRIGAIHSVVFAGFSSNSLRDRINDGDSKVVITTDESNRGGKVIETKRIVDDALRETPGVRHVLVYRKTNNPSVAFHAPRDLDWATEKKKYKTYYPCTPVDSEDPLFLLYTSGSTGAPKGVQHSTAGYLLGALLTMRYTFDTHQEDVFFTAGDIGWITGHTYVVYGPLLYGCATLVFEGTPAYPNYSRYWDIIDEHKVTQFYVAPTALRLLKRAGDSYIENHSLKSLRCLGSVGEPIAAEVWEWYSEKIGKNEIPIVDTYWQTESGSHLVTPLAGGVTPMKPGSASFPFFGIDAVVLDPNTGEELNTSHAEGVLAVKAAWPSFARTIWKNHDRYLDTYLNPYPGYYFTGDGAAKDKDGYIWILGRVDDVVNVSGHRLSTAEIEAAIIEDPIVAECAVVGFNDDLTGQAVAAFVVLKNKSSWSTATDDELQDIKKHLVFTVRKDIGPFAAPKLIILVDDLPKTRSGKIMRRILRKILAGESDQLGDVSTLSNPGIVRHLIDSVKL

T3: S-Acetyl-coenzyme A synthetase (EC 6.2.1.1) from baker's yeast, free enzyme (Saccharomyces cerevisiae, UniProt Q01574)
T3 construct: purchased Sigma-Aldrich (Germany)
T3 sequence (Q01574 1-713): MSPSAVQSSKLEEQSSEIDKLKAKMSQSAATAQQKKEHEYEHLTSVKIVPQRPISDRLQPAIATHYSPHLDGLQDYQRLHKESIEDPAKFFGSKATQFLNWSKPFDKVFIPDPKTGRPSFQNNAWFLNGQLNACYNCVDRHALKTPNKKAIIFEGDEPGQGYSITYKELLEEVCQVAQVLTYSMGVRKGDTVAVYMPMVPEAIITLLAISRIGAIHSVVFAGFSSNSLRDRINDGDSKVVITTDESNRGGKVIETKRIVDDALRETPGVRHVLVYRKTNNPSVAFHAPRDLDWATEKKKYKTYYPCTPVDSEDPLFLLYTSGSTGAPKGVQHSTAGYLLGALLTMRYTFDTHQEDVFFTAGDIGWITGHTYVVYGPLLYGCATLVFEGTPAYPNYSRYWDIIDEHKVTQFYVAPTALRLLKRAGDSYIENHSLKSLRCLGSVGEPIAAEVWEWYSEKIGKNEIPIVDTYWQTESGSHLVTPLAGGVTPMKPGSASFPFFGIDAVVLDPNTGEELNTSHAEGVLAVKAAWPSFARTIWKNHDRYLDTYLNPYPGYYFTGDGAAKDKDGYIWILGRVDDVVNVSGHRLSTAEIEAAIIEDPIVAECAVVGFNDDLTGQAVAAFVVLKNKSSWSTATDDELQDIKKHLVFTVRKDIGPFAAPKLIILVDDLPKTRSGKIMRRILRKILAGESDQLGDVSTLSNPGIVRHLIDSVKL


Experiments:
[1] = target: T1, S-Acetyl-coenzyme A synthetase (EC 6.2.1.1) from baker's yeast, Immobilized enzyme (PEI-PNIPAm); assay: Reaction kinetics of PEI-PNIPAm-immobilized Acetyl CoA-synthetase for acetate (citrate synthase/malate dehydrogenase coupled assay, Table 2); type: biochemical; details: acetate substrate at 37°C; ATP 1 mM, CoA 0.5 mM; enzyme adsorbed on PEI-PNIPAm microgel
Method: The immobilization of Acetyl CoA-synthetase on PEI-PNIPAm microgel was achieved via adsorption in 0.1 M Tris-CI buffer at pH 8 for 6 h at 4°C. The conjugate was obtained by centrifugation at 12,000 rpm for 15 min at 25°C and subsequently washed with the same buffer to remove non adsorbed enzymes. Using Micro BCA (for protein concentrations lower than 20 µg/mL) assay kits, the amounts of adsorbed enzyme loaded to the microgel was determined by subtracting the residual protein content in the supernatant from the initial protein content. The enzyme and conjugate were stored in 0.1 M Borate buffer containing 1 mM glutathione and 1 mM magnesium chloride pH 8 for further use.
The activity of free and immobilized Acs was determined spectrophotometrically by following acetyl CoA synthesis at 340 nm wavelength by coupling to Citrate synthase (CS) and malate dehydrogenase (MDH) assay. […]
(§1) Assuming Michaelis-Menten kinetics for Acetyl CoA-synthetase by the following equations: V = (Vmax [S])/(Km + [S]) [formula] where V is the rate of the reaction, [S] is the concentration of the substrate, Km is the apparent constant, and Vmax is the maximum of reaction velocity. The values for Km and Vmax, were estimated with the help of a Lineweaver-Burk plot for the Michaelis-Menten equation expressed as follows: (1)/(V) = (Km)/(Vmax)[…](1)/([S]) + (1)/(Vmax) [formula] […]

[2] = target: T2, S-Acetyl-coenzyme A synthetase (EC 6.2.1.1) from baker's yeast, Immobilized enzyme (PNIPAm-AEMA); assay: Reaction kinetics of PNIPAm-AEMA-immobilized Acetyl CoA-synthetase for acetate (pyrophosphate-molybdate assay, Table 1); type: biochemical; details: acetate substrate at 37°C; ATP 1 mM, CoA 0.5 mM; enzyme covalently immobilized on PNIPAm-AEMA microgel
Method: Acetyl CoA-synthetase was covalently immobilized to PNIPAm-AEMA core-shell microgel using carbodiimide chemistry in 0.1 M Borate buffer at pH 8. Inorganic phosphate present in commercial enzyme preparation (interferes with molybdate assay) was removed by filtration using 30 kDa centrifuge filter tubes (Millipore).
The activity of free acetyl CoA synthetase and their bioconjugates with PNIPAm-AEMA or microgel was studied in borate buffer (0.1 M, pH 8), in presence of 20 mM potassium acetate, 4 mM MgCl2, 4 mM glutathione, 1 mM ATP, and 500 µM coenzyme A. The reaction was terminated by addition of acidic molybdate reagent. The pyrophosphate-molybdate complex formed was further reduced by addition of mercaptoethanol and Eikonogen reagent. The obtained coloured product was quantified by measuring the absorption at 590 nm and pyrophosphate concentration was determined (ε = 2.7 x 10^4 M^-1 cm^-1). […]
as §1

[3] = target: T3, S-Acetyl-coenzyme A synthetase (EC 6.2.1.1) from baker's yeast, free enzyme; assay: Reaction kinetics of free Acetyl CoA-synthetase for acetate (pyrophosphate-molybdate assay, Table 1); type: biochemical; details: acetate substrate at 37°C, ATP 1 mM, CoA 0.5 mM, Lineweaver-Burk plot
Method: (§2) The activity of free acetyl CoA synthetase and their bioconjugates with PNIPAm-AEMA or microgel was studied in borate buffer (0.1 M, pH 8), in presence of 20 mM potassium acetate, 4 mM MgCl2, 4 mM glutathione, 1 mM ATP, and 500 µM coenzyme A. The reaction was terminated by addition of acidic molybdate reagent. The pyrophosphate-molybdate complex formed was further reduced by addition of mercaptoethanol and Eikonogen reagent. The obtained coloured product was quantified by measuring the absorption at 590 nm and pyrophosphate concentration was determined (ε = 2.7 x 10^4 M^-1 cm^-1).
(§3) One unit of enzyme activity was defined as the amount of enzyme required to form 1 µmol pyrophosphate per min at pH 8 and 37°C. Bradford micro assay with a sensitivity of 1-10 µg/mL was used to determine protein concentration using bovine serum albumin as the standard protein. […]
as §1

[4] = target: T3, S-Acetyl-coenzyme A synthetase (EC 6.2.1.1) from baker's yeast, free enzyme; assay: Reaction kinetics of free Acetyl CoA-synthetase for acetate (citrate synthase/malate dehydrogenase coupled assay, Table 2); type: biochemical; details: acetate substrate at 37°C, ATP 1 mM, CoA 0.5 mM, Lineweaver-Burk plot
Method: The activity of free and immobilized Acs was determined spectrophotometrically by following acetyl CoA synthesis at 340 nm wavelength by coupling to Citrate synthase (CS) and malate dehydrogenase (MDH) assay.
The assay medium composition for enzyme activity consists of 20 mM potassium acetate, 4 mM MgCl, 4 mM glutathione, 1 mM ATP, 500 µM co-enzyme A, 1 mM NAD and 4 mM malate in 100mM Tris Cl buffer pH 8. The acetyl CoA synthesized was correlated to the concentration of NADH formed in a coupled assay using […]. One unit of enzyme activity was defined as the amount of enzyme which is required to form 1 µmol of NADH per min at pH 8 and 37°C.
The reaction kinetics of free and immobilized enzymes was studied at various concentrations of acetate (5 mM - 0.3 mM) as a substrate and keeping concentrations of ATP and CoA constant at 1 mM and 0.5 mM, respectively. […]
as §1

[5] = substrate: CC(=O)O; assay: Reaction kinetics of free Acetyl CoA-synthetase for acetate (pyrophosphate-molybdate assay, Table 1); type: biochemical, Saccharomyces cerevisiae; details: other: acetate substrate at 37°C, acetate 5 mM - 0.3 mM, ATP 1 mM, CoA 0.5 mM, Lineweaver-Burk plot, free enzyme, pH 8.0
Method: as §2, §3, §1

Row | Molecule | Vmax [1] | Vmax [2] | Vmax [3] | Vmax [4] | Km [5]
1 | CC(=O)O [acetate] | 44 x10^-3± 2 x10^-3 U/min | 5.6 x10^-3± 0.1x10^-3 U/min | 8.5x10^-3 ± 0.4x10^-3 U/min | 16x10^-3 ± 1 x10^-3 U/min | 
2 | S-Acetyl-coenzyme A synthetase (EC 6.2.1.1) from baker's yeast, free enzyme (Saccharomyces cerevisiae S288C) (protein, purchased Sigma-Aldrich (Germany)) MSPSAVQSSKLEEQSSEIDKLKAKMSQSAATAQQKKEHEYEHLTSVKIVPQRPISDRLQPAIATHYSPHLDGLQDYQRLHKESIEDPAKFFGSKATQFLNWSKPFDKVFIPDPKTGRPSFQNNAWFLNGQLNACYNCVDRHALKTPNKKAIIFEGDEPGQGYSITYKELLEEVCQVAQVLTYSMGVRKGDTVAVYMPMVPEAIITLLAISRIGAIHSVVFAGFSSNSLRDRINDGDSKVVITTDESNRGGKVIETKRIVDDALRETPGVRHVLVYRKTNNPSVAFHAPRDLDWATEKKKYKTYYPCTPVDSEDPLFLLYTSGSTGAPKGVQHSTAGYLLGALLTMRYTFDTHQEDVFFTAGDIGWITGHTYVVYGPLLYGCATLVFEGTPAYPNYSRYWDIIDEHKVTQFYVAPTALRLLKRAGDSYIENHSLKSLRCLGSVGEPIAAEVWEWYSEKIGKNEIPIVDTYWQTESGSHLVTPLAGGVTPMKPGSASFPFFGIDAVVLDPNTGEELNTSHAEGVLAVKAAWPSFARTIWKNHDRYLDTYLNPYPGYYFTGDGAAKDKDGYIWILGRVDDVVNVSGHRLSTAEIEAAIIEDPIVAECAVVGFNDDLTGQAVAAFVVLKNKSSWSTATDDELQDIKKHLVFTVRKDIGPFAAPKLIILVDDLPKTRSGKIMRRILRKILAGESDQLGDVSTLSNPGIVRHLIDSVKL |  |  |  |  | 170 ± 30 µM
